These results are taken from paper PMC6121230 (International Journal of Molecular Sciences, 2018).

Test systems include VpPLD-(His)6-WT; (His)6-VpPLD-Δ451-487; (His)6-VpPLD-Δ469-487; (His)6-VpPLD-Δ434-487; VpPLD-(His)6-Δ1-34; VpPLD-(His)6-Δ1-25.
What all share (conditions): 50 mM Tris pH 8.0; lipid monolayer, interfacial binding (not a 1:1 site)
Assay [1] has as its system (His)6-VpPLD-WT.
Assay [2] deals with (His)6-VpPLD-WT. The source holds these as a separate data set.

SMILES strings stand for the structures.

In the assay on VpPLD-(His)6-WT, `CCCCCCCCCCCCCC(=O)OC[C@H](COP(=O)(O)OCC(O)CO)OC(=O)CCCCCCCCCCCCC` (mixture of isomers) [DMPG, 1,2-Dimyristoyl-sn-glycero-3-phospho-rac-glyceol] yielded an MIP of 26.8 ± 0.9 mN m^-1. In addition, the synergy factor a with (His)6-VpPLD-WT [1] is recorded as 0.29 ± 0.03.

For `CCCCCCCCCCCCCC(=O)OC[C@H](COP(=O)([O-])OCC[N+](C)(C)C)OC(=O)CCCCCCCCCCCCC` [DMPC, 1,2-Dimyristoyl-sn-glycero-3-phosphocholine], the MIP in the assay with VpPLD-(His)6-WT is given as 37.4 ± 1.3 mN m^-1; with (His)6-VpPLD-Δ451-487, 34.9 ± 3.7 mN m^-1; in the assay on (His)6-VpPLD-WT [2] it was 29.6 ± 2.6 mN m^-1; with (His)6-VpPLD-Δ469-487, 29.8 ± 1.8 mN m^-1.

`CCCCCCCCCCCCCC(=O)OC[C@H](COP(=O)(O)OCCN)OC(=O)CCCCCCCCCCCCC` [DMPE, 1,2-Dimyristoyl-sn-glycero-3-phosphoethanolamine]: the MIP in the assay with VpPLD-(His)6-WT is 29.8 ± 2.8 mN m^-1; in the assay on (His)6-VpPLD-Δ434-487, 45.1 ± 2.8 mN m^-1; in the assay with VpPLD-(His)6-Δ1-34, 47.8 ± 8.7 mN m^-1; in the assay on (His)6-VpPLD-WT [2] it was 32.8 ± 3.7 mN m^-1; in the assay with VpPLD-(His)6-Δ1-25, 39.4 ± 6.2 mN m^-1; with (His)6-VpPLD-Δ469-487, 26.2 ± 2.7 mN m^-1.

Regarding `CCCCCCCCCCCCCC(=O)OC[C@H](COP(=O)(O)OC[C@H](N)C(=O)O)OC(=O)CCCCCCCCCCCCC` [DMPS, 1,2-Dimyristoyl-sn-glycero-3-phospho-L-serine], the MIP in the assay on VpPLD-(His)6-WT is recorded as 38.5 ± 2.7 mN m^-1; in the assay with (His)6-VpPLD-Δ434-487, 40.4 ± 4.6 mN m^-1; with VpPLD-(His)6-Δ1-34, 36.5 ± 2.7 mN m^-1; with (His)6-VpPLD-Δ451-487 it was 36.4 ± 2.1 mN m^-1; with (His)6-VpPLD-WT [2], 34.8 ± 0.6 mN m^-1; in the assay with VpPLD-(His)6-Δ1-25, 30.4 ± 3.2 mN m^-1.
